Experimental data taken from the NIST ThermoML archive (doi:10.1016/j.jct.2016.09.026).

Tests used:
[1] = molar enthalpy of vaporization or sublimation; conditions: 381.12 K; Liquid; Static calorimetry
[2] = molar heat capacity at constant pressure; conditions: 101.33 kPa, Small sample (50 mg) DSC
[3] = Crystal; DTA
[4] = Molar enthalpy of transition or fusion; conditions: Crystal; DSC

CCCCCCC(=O)c1ccc(O)cc1 [1-(4-hydroxyphenyl)-1-heptanone]
Conditions	Molar enthalpy of transition or fusion [kJ/mol]	Normal melting temperature [°C]	molar enthalpy [kJ/mol]
[1]	–	–	101
[3]	–	92	–
[4]	31.4	–	–

[2]
Conditions	molar heat capacity at constant pressure [J/K/mol]
288.67 K, Crystal	291
289.17 K, Crystal	292.2
289.67 K, Crystal	289.9
290.17 K, Crystal	290.9
290.68 K, Crystal	292.7
291.18 K, Crystal	295
291.68 K, Crystal	296.8
292.18 K, Crystal	295.6
292.69 K, Crystal	295.3
293.19 K, Crystal	296.8
293.69 K, Crystal	295
294.19 K, Crystal	297.4
294.69 K, Crystal	297.4
295.19 K, Crystal	296.8
295.69 K, Crystal	301
296.19 K, Crystal	302.3
296.7 K, Crystal	300.1
297.2 K, Crystal	300.6
297.7 K, Crystal	300.7
298.2 K, Crystal	300.2
298.7 K, Crystal	303
299.2 K, Crystal	302.5
299.7 K, Crystal	304.8
300.2 K, Crystal	307.5
300.7 K, Crystal	306.2
301.2 K, Crystal	305.9
301.7 K, Crystal	306.8
302.2 K, Crystal	306.5
302.7 K, Crystal	307.3
303.2 K, Crystal	308.7
303.7 K, Crystal	307.9
304.2 K, Crystal	309.2
304.7 K, Crystal	311.7
305.2 K, Crystal	310
305.7 K, Crystal	309.6
306.2 K, Crystal	311.9
306.7 K, Crystal	312.9
307.2 K, Crystal	311.4
307.7 K, Crystal	311.2
308.2 K, Crystal	310.6
308.7 K, Crystal	313.4
309.2 K, Crystal	314
309.7 K, Crystal	314.4
310.2 K, Crystal	315.8
310.7 K, Crystal	314.9
311.2 K, Crystal	316.7
311.7 K, Crystal	318
312.2 K, Crystal	317.3
312.7 K, Crystal	318.1
313.2 K, Crystal	319.2
313.7 K, Crystal	320.9
314.2 K, Crystal	320.5
314.7 K, Crystal	319.8
315.2 K, Crystal	319.7
315.7 K, Crystal	323.3
316.2 K, Crystal	322.8
316.7 K, Crystal	323.2
317.2 K, Crystal	324
317.7 K, Crystal	323.8
318.2 K, Crystal	325.7
318.7 K, Crystal	324.1
319.2 K, Crystal	327.1
319.7 K, Crystal	327.1
320.2 K, Crystal	324.7
320.7 K, Crystal	327.1
321.2 K, Crystal	328.9
321.7 K, Crystal	328.9
322.2 K, Crystal	330.3
322.7 K, Crystal	329.6
323.2 K, Crystal	331.2
323.7 K, Crystal	332
324.2 K, Crystal	330.5
324.7 K, Crystal	331.9
325.2 K, Crystal	333.5
325.7 K, Crystal	333.6
326.2 K, Crystal	334.4
326.7 K, Crystal	335
327.2 K, Crystal	335.2
327.7 K, Crystal	334.1
328.2 K, Crystal	335
328.7 K, Crystal	337.4
329.2 K, Crystal	336.3
329.7 K, Crystal	338.1
330.2 K, Crystal	338.7
330.7 K, Crystal	337.8
331.2 K, Crystal	338.5
331.7 K, Crystal	339.5
332.2 K, Crystal	340.3
332.7 K, Crystal	342.3
333.2 K, Crystal	341.3
333.7 K, Crystal	342.1
334.2 K, Crystal	343.3
334.7 K, Crystal	343.6
335.2 K, Crystal	343.9
335.7 K, Crystal	346.5
336.2 K, Crystal	344.9
336.7 K, Crystal	346.6
337.2 K, Crystal	346.4
337.7 K, Crystal	346.9
338.2 K, Crystal	349.4
338.7 K, Crystal	347.8
339.19 K, Crystal	348.2
339.69 K, Crystal	348.7
340.2 K, Crystal	350.4
340.7 K, Crystal	352.5
341.2 K, Crystal	350.7
341.7 K, Crystal	350.7
342.2 K, Crystal	351.4
342.7 K, Crystal	351.7
343.19 K, Crystal	353.4
343.69 K, Crystal	353.1
344.19 K, Crystal	353.4
344.69 K, Crystal	356.8
345.19 K, Crystal	357
345.69 K, Crystal	355.2
346.19 K, Crystal	357.3
346.69 K, Crystal	357.3
347.19 K, Crystal	358.3
347.69 K, Crystal	359.2
348.19 K, Crystal	360.3
348.69 K, Crystal	361.6
349.19 K, Crystal	362.4
349.69 K, Crystal	360.9
350.19 K, Crystal	361.8
350.69 K, Crystal	363.3
351.19 K, Crystal	364.3
351.69 K, Crystal	363.9
352.19 K, Crystal	363.4
352.69 K, Crystal	366
353.19 K, Crystal	365.4
353.69 K, Crystal	368.2
354.19 K, Crystal	369.3
354.69 K, Crystal	370
355.19 K, Crystal	372.4
355.69 K, Crystal	375.2
356.19 K, Crystal	373.6
356.69 K, Crystal	374.5
357.19 K, Crystal	374.8
357.69 K, Crystal	380
358.19 K, Crystal	380.1
358.69 K, Crystal	381.4
359.19 K, Crystal	382.3
359.69 K, Crystal	387
360.19 K, Crystal	391.3
360.69 K, Crystal	393.9
361.19 K, Crystal	397.9
361.69 K, Crystal	403.5
362.19 K, Crystal	413.1
362.69 K, Crystal	424.4
363.19 K, Crystal	446.7
370.2 K, Liquid	458.6
370.7 K, Liquid	460.1
371.19 K, Liquid	461.4
371.69 K, Liquid	461.5
372.19 K, Liquid	463.4
372.69 K, Liquid	462.1
373.19 K, Liquid	464.1
373.69 K, Liquid	465.7
374.19 K, Liquid	465.5
374.69 K, Liquid	467.4
375.19 K, Liquid	464.3
375.69 K, Liquid	466.6
376.19 K, Liquid	466.5
376.69 K, Liquid	466.6
377.19 K, Liquid	467.5
377.69 K, Liquid	468.1
378.19 K, Liquid	470.5
378.69 K, Liquid	469.8
379.19 K, Liquid	468.2
379.69 K, Liquid	471.2
380.19 K, Liquid	470
380.69 K, Liquid	474
381.19 K, Liquid	473.3
381.69 K, Liquid	474
382.19 K, Liquid	470.5
382.69 K, Liquid	473.3
383.19 K, Liquid	472.6
383.69 K, Liquid	473.7
384.19 K, Liquid	474.9
384.69 K, Liquid	477.4
385.19 K, Liquid	480
385.69 K, Liquid	481.1
386.19 K, Liquid	482.1
386.69 K, Liquid	479
